Entries after “also recorded” stand apart in the source; their conditions may differ.
Key:
[1] = test system: S. aureus; assay: Antimicrobial activity (time-kill viability) evaluation with S. aureus; assay type: cell-based; settings: measured by viable cells per mL, Table 1 / FIG. 1
Protocol: The antimicrobial activity of the formulations according to embodiments of the present invention were evaluated by a standard microbiological analysis. […] For the evaluation, bacterial and fungal isolates were grown overnight on appropriate agar media as source of fresh cells. A suspension of these fresh cells was prepared in saline at approximately 1×10^8 cfu/mL. These suspensions were added directly to the test agents (various solutions of sodium 2,2-dimethyl-N,N-dichlorotaurine and control solutions). The initial concentration of cells in the test agent solutions was approximately 1×10^6 cfu/mL. The exposure of microorganisms to the test agent was conducted at room temperature for up to 60 minutes. At selected times, an aliquot was withdrawn and diluted into phosphate buffered saline at 4° C. Viability was determined following serial dilution and filtration onto Milliflex cassettes.

[2] = test system: C. albicans; assay: Antimicrobial activity (time-kill viability) evaluation with C. albicans; assay type: cell-based; settings: measured by viable cells per mL, Table 2 / FIG. 2
Protocol: The antimicrobial activity of the formulations according to embodiments of the present invention were evaluated by a standard microbiological analysis. The results of this evaluation are summarized in Tables 1 and 2 below and are shown graphically in FIGS. 1 and 2. For the evaluation, bacterial and fungal isolates were grown overnight on appropriate agar media as source of fresh cells. A suspension of these fresh cells was prepared in saline at approximately 1×10^8 cfu/mL. These suspensions were added directly to the test agents (various solutions of sodium 2,2-dimethyl-N,N-dichlorotaurine and control solutions). The initial concentration of cells in the test agent solutions was approximately 1×10^6 cfu/mL. The exposure of microorganisms to the test agent was conducted at room temperature for up to 60 minutes. At selected times, an aliquot was withdrawn and diluted into phosphate buffered saline at 4° C. Viability was determined following serial dilution and filtration onto Milliflex cassettes.

In the case of `CC(C)(CS(=O)(=O)O)N(Cl)Cl` [2,2-dimethyl-N,N-dichlorotaurine], the “anti-infective (antimicrobial) activity when the formulation contained sodium acetate” value [1] is reported as “dramatically improved; also recorded: increased” and the “anti-infective (antimicrobial) activity when the formulation contained sodium acetate” value [2] is reported as “dramatically improved; also recorded: increased”.

Source: patent US20110060044A1, “ALIPHATIC ACID-CONTAINING N-HALOGENATED AMINO ACID FORMULATIONS” (ALCON RESEARCH, LTD., priority 2007, published 2011)
